Measurements from patent US20250333371A1, “COMPOUNDS” (PSYLO PTY LTD, priority 2022, published 2025).

Target: T1, 5-HT2B (Homo sapiens, UniProt P41595)
T1 construct: host or cells: CHO-K1
Experiment: FLIPR Ca2+ flux functional assay, 5-HT2B receptor (stably transfected CHO-K1)
Format: cell-based
Procedure: Activity at 5-HT2A, 5-HT2B and 5-HT2C receptors was determined using a FLIPR Ca^2+ flux assay at WuXi AppTec Co. Ltd. (Hong Kong) Discovery Biology Unit according to their standard protocols. Briefly, stably transfected cells expressing the receptor of interest (HEK293 for 5-HT2A and 5-HT2C; CHO-K1 for 5-HT2B) were grown and plated in a 384 well plate and incubated at 37° C. and 5% CO2 overnight. A 250 mM stock solution of probenecid in FLIPR calcium assay buffer (10 mL) was freshly prepared and combined with a fluorescent dye (Fluo-4 Direct) to give a final assay concentration of 2.5 mM. Reference compounds were 4-fold serially diluted and the screening compounds were 3-fold serially diluted in 100% DMSO for 10 points using Agilent Bravo, and 750 nL was added to a 384 well compound plate using Echo along with 30 μL assay buffer. The fluorescent dye was then added to the assay plate along with assay buffer to a final volume of 40 μL. The cell plate was incubated for 50 min at 37° C. and 5% CO2 and placed into the FLIPR Tetra along with the compound plate. 10 μL of references and compounds were then transferred from the compound plate into the cell plate and the fluorescent signal was read.

T1 sequence (P41595 whole entry): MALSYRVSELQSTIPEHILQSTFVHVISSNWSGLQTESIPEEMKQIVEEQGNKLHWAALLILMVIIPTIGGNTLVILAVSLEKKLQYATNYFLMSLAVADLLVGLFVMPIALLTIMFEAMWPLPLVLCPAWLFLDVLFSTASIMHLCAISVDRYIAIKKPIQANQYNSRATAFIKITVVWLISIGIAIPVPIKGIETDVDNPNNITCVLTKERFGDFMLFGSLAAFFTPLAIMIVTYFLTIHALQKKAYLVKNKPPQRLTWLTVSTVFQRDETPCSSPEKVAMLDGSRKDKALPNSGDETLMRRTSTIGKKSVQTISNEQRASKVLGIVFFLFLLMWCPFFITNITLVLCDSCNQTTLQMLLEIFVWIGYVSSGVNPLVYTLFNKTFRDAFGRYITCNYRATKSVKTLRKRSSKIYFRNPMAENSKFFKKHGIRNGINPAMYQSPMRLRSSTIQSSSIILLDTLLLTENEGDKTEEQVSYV

COc1ccc2cccc(CCN(C)C(C)C)c2c1 [Example I-7, N-(2-(7-methoxynaphthalen-1-yl)ethyl)-N-methylpropan-2-amine]
EC50: > 10 µM | Emax (agonist activity, Ca2+ flux, CHO-K1): 36%
